Key:
Experiment in all cases: Test G pre/postemergence
Format in all cases: in vivo
[1] = tested on: annual bluegrass (Poa annua)
Outline: (§1)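 Greenhouse pre/postemergence screen with surfactant-containing solvent formulation; postemergence plants were 1- to 4-leaf stage. Percent control (0–100) was judged by eye against controls after 12–21 days.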

[2] = tested on: barnyardgrass (Echinochloa crus-galli)
Outline: as §1

[3] = tested on: broadleaf signalgrass (Brachiaria platyphylla)
Outline: as §1

[4] = tested on: common purslane (Portulaca oleracea)
Outline: as §1

[5] = tested on: common sowthistle (Sonchus oleraceous)
Outline: as §1

[6] = tested on: dallisgrass (Paspalum dilatatum)
Outline: as §1

kochia (Kochia scoparia) = tested on: kochia (Kochia scoparia)
Outline: as §1

[7] = tested on: large crabgrass (Digitaria sanguinalis)
Outline: as §1

[8] = tested on: pitted morningglory (Ipomoea lacunosa)
Outline: as §1

[9] = tested on: purple nutsedge (Cyperus rotundus)
Outline: as §1

[10] = tested on: spanishneedles (Bidens bipinnata)
Outline: as §1

[11] = Postemergence, 8 g ai/ha, scale 0 to 100
[12] = Postemergence, 16 g ai/ha, scale 0 to 100
[13] = Postemergence, 31 g ai/ha, scale 0 to 100
[14] = Postemergence, 62 g ai/ha, scale 0 to 100
[15] = Preemergence, 8 g ai/ha, scale 0-100
[16] = Preemergence, 16 g ai/ha, scale 0-100
[17] = Preemergence, 31 g ai/ha, scale 0-100
[18] = Preemergence, 62 g ai/ha, scale 0-100

CCOC(=O)c1nc(-c2ccc(Cl)cc2)nc(N)c1Cl [Compound 64, ethyl 6-amino-5-chloro-2-(4-chlorophenyl)-4-pyrimidinecarboxylate]
Plant response rating, Bluegrass [1, 11]: 0
Plant response rating, Bluegrass [1, 12]: 0
Plant response rating, Bluegrass [1, 13]: 0
Plant response rating, Bluegrass [1, 14]: 0
Plant response rating, Bluegrass [1, 15]: 0
Plant response rating, Bluegrass [1, 16]: 0
Plant response rating, Bluegrass [1, 17]: 0
Plant response rating, Bluegrass [1, 18]: 0
Plant response rating, Barnyardgrass [2, 11]: 0
Plant response rating, Barnyardgrass [2, 12]: 20
Plant response rating, Barnyardgrass [2, 13]: 20
Plant response rating, Barnyardgrass [2, 14]: 20
Plant response rating, Barnyardgrass [2, 15]: 0
Plant response rating, Barnyardgrass [2, 16]: 0
Plant response rating, Barnyardgrass [2, 17]: 0
Plant response rating, Barnyardgrass [2, 18]: 10
Plant response rating, Signalgrass [3, 11]: 0
Plant response rating, Signalgrass [3, 12]: 0
Plant response rating, Signalgrass [3, 13]: 0
Plant response rating, Signalgrass [3, 14]: 30
Plant response rating, Signalgrass [3, 15]: 0
Plant response rating, Signalgrass [3, 16]: 0
Plant response rating, Signalgrass [3, 17]: 0
Plant response rating, Signalgrass [3, 18]: 0
Plant response rating, Purslane [4, 11]: 0
Plant response rating, Purslane [4, 12]: 0
Plant response rating, Purslane [4, 13]: 0
Plant response rating, Purslane [4, 14]: 60
Plant response rating, Purslane [4, 15]: 0
Plant response rating, Purslane [4, 16]: 0
Plant response rating, Purslane [4, 17]: 0
Plant response rating, Purslane [4, 18]: 35
Plant response rating, Sowthistle [5, 11]: 65
Plant response rating, Sowthistle [5, 12]: 80
Plant response rating, Sowthistle [5, 13]: 80
Plant response rating, Sowthistle [5, 14]: 80
Plant response rating, Sowthistle [5, 15]: 0
Plant response rating, Sowthistle [5, 16]: 0
Plant response rating, Sowthistle [5, 17]: 35
Plant response rating, Sowthistle [5, 18]: 90
Plant response rating, Dallisgrass [6, 11]: 0
Plant response rating, Dallisgrass [6, 12]: 0
Plant response rating, Dallisgrass [6, 13]: 0
Plant response rating, Dallisgrass [6, 14]: 20
Plant response rating, Dallisgrass [6, 15]: 0
Plant response rating, Dallisgrass [6, 16]: 0
Plant response rating, Dallisgrass [6, 17]: 0
Plant response rating, Dallisgrass [6, 18]: 0
Plant response rating, Kochia (kochia (Kochia scoparia); [11]): 65
Plant response rating, Kochia (kochia (Kochia scoparia); [12]): 75
Plant response rating, Kochia (kochia (Kochia scoparia); [13]): 85
Plant response rating, Kochia (kochia (Kochia scoparia); [14]): 90
Plant response rating, Kochia (kochia (Kochia scoparia); [15]): 0
Plant response rating, Kochia (kochia (Kochia scoparia); [16]): 0
Plant response rating, Kochia (kochia (Kochia scoparia); [17]): 10
Plant response rating, Kochia (kochia (Kochia scoparia); [18]): 15
Plant response rating, Crabgrass, Large [7, 11]: 30
Plant response rating, Crabgrass, Large [7, 12]: 50
Plant response rating, Crabgrass, Large [7, 13]: 70
Plant response rating, Crabgrass, Large [7, 14]: 80
Plant response rating, Crabgrass, Large [7, 15]: 0
Plant response rating, Crabgrass, Large [7, 16]: 0
Plant response rating, Crabgrass, Large [7, 17]: 0
Plant response rating, Crabgrass, Large [7, 18]: 35
Plant response rating, Morningglory [8, 11]: 0
Plant response rating, Morningglory [8, 12]: 0
Plant response rating, Morningglory [8, 13]: 20
Plant response rating, Morningglory [8, 14]: 65
Plant response rating, Morningglory [8, 15]: 0
Plant response rating, Morningglory [8, 16]: 0
Plant response rating, Morningglory [8, 17]: 0
Plant response rating, Morningglory [8, 18]: 0
Plant response rating, Nutsedge, Purple [9, 11]: 0
Plant response rating, Nutsedge, Purple [9, 12]: 35
Plant response rating, Nutsedge, Purple [9, 13]: 35
Plant response rating, Nutsedge, Purple [9, 14]: 35
Plant response rating, Nutsedge, Purple [9, 15]: 0
Plant response rating, Nutsedge, Purple [9, 16]: 0
Plant response rating, Nutsedge, Purple [9, 17]: 0
Plant response rating, Nutsedge, Purple [9, 18]: 0
Plant response rating, Spanishneedles [10, 11]: 65
Plant response rating, Spanishneedles [10, 12]: 75
Plant response rating, Spanishneedles [10, 13]: 90
Plant response rating, Spanishneedles [10, 14]: 90
Plant response rating, Spanishneedles [10, 15]: 0
Plant response rating, Spanishneedles [10, 16]: 0
Plant response rating, Spanishneedles [10, 17]: 0
Plant response rating, Spanishneedles [10, 18]: 35
